Data on four compounds can be found in paper PMC7946228, “Discovery of novel candidates for anti-liposarcoma therapies by medium-scale high-throughput drug screening” (PLoS ONE, 2021).

In series [1] the test system is FU-DDLS-1 liposarcoma cell line. The experiment in a line: CellTiter-Glo viability, GR50, 72h. As to conditions: Homo sapiens; FU-DDL S-1, 72h; read-out: Half maximum effective concentration corrected for cell growth (GR50). The format is cell-based, human. Here is the method: (§1) Cell viability was measured using the CellTiter-Glo Luminescent Cell Viability Assay (Promega, Wisconsin, United States). For each experiment the same cell numbers were seeded as for the proliferation experiments. Seven drug concentrations were used, starting from 100μM with 10-fold dilutions and also a vehicle control appropriate for each drug (DMSO or ethanol). After 72h of drug or vehicle control treatment levels of ATP were measured with CellTiter-Glo. The data from six to nine biological replicates, each with three technical replicates were collected. A nonlinear regression model with different four-parameter log-logistic function was used for modelling of the drug dose-response using ‘GRmetrics’ R package version 1.8.1 [26]. The calculated GR50 metric is equivalent to the IC50 metric but takes into account the growth rate of cells. Therefore, it estimates better the effect of the compound on cell viability and allows for comparison between different cell lines with different growth rates.
On the technique in general: Cellular ATP, detected with luciferase, serves as a proxy for viable cell number.

The subject of series [2] is GOT3 liposarcoma cell line. The experiment in a line: CellTiter-Glo viability, GR50, 72h. The format is cell-based, human. The following applies: Homo sapiens; GOT3, 72h; read-out: Half maximum effective concentration corrected for cell growth (GR50). Here is the method: as §1
The test system of series [3] is SA-4 liposarcoma cell line. The experiment in a line: CellTiter-Glo viability, GR50, 72h. The format is cell-based, human. As to conditions: Homo sapiens; SA-4, 72h; read-out: Half maximum effective concentration corrected for cell growth (GR50). Here is the method:
as §1

Series [4] concerns T449 liposarcoma cell line. The experiment in a line: CellTiter-Glo viability, GR50, 72h. The format is cell-based, human. The following applies: Homo sapiens; T449, 72h; read-out: Half maximum effective concentration corrected for cell growth (GR50). As for the experimental part:
as §1

The subject of series [5] is LPS141 liposarcoma cell line. The experiment in a line: CellTiter-Glo viability, GR50, 72h. The format is cell-based, human. As to conditions: Homo sapiens, LPS141; LPS 141, 72h; read-out: Half maximum effective concentration corrected for cell growth (GR50). Here is the method:
as §1

The subject of series [6] is LiSa-2 liposarcoma cell line. The experiment in a line: CellTiter-Glo viability, GR50, 72h. The format is cell-based, human. As to conditions: Homo sapiens; LiSa-2, 72h; read-out: Half maximum effective concentration corrected for cell growth (GR50). As for the experimental part:
as §1

In series [7] the test system is LPS853 liposarcoma cell line. The experiment in a line: CellTiter-Glo viability, GR50, 72h. The format is cell-based, human. The following applies: Homo sapiens; LPS 853, 72h; read-out: Half maximum effective concentration corrected for cell growth (GR50). As for the experimental part: as §1
Series [8] concerns T1000 liposarcoma cell line. The experiment in a line: CellTiter-Glo viability, GR50, 72h. The format is cell-based, human. As to conditions: Homo sapiens; T1000, 72h; read-out: Half maximum effective concentration corrected for cell growth (GR50). As for the experimental part:
as §1

For series [9], the system named is SW872 liposarcoma cell line. The experiment in a line: CellTiter-Glo viability, GR50, 72h. The format is cell-based, human. As to conditions: Homo sapiens, SW872; SW 872, 72h; read-out: Half maximum effective concentration corrected for cell growth (GR50). As for the experimental part: as §1
Series [10] deals with LS2 liposarcoma cell line. The experiment in a line: CellTiter-Glo viability, GR50, 72h. As to conditions: Homo sapiens; LS2, 72h; read-out: Half maximum effective concentration corrected for cell growth (GR50). The format is cell-based, human. As for the experimental part:
as §1

Series [11] concerns NRH-LS1 liposarcoma cell line. The experiment in a line: CellTiter-Glo viability, GR50, 72h. The format is cell-based, human. As to conditions: Homo sapiens; NRH-LS1, 72h; read-out: Half maximum effective concentration corrected for cell growth (GR50). As for the experimental part:
as §1

In series [12] the test system is T778 liposarcoma cell line. The experiment in a line: CellTiter-Glo viability, GR50, 72h. The format is cell-based, human. The following applies: Homo sapiens; T778, 72h; read-out: Half maximum effective concentration corrected for cell growth (GR50). Here is the method: as §1
Series [13] concerns LPS510 liposarcoma cell line. The experiment in a line: CellTiter-Glo viability, GR50, 72h. The format is cell-based, human. As to conditions: Homo sapiens; LPS 510, 72h; read-out: Half maximum effective concentration corrected for cell growth (GR50). As for the experimental part: as §1
The test system of series [14] is advanced solid malignancies or lymphoma. The following applies: cited from earlier work.
Series [15] deals with normal cells (blood, bone marrow from healthy donors, iMSC#3). The experiment in a line: Toxicity towards normal cells ex vivo, ATP viability 72h. The format is cell-based, human. As to conditions: 1 nM to 10 μM. As for the experimental part:
349 compounds from anti-cancer Selleck Chemical library were pre-aliquoted at five concentrations, increasing in 10-fold steps from 1 nM to 10 μM, in 384-well plates using an Echo Liquid Handler. Each plate also contained positive (benzethonium chloride, BzCl) and negative (DMSO only) controls. Additional drugs were added manually to the same plates at the same concentration range. Cells were seeded directly into the plates containing the drugs. After 72h viability was assessed through levels of ATP, with Cell Titer Glow assay (Promega, Wisconsin, United States) and luminescence quantified using a […]. Data from drug screens were analyzed with R version 3.4.0 (R_Core_Team, 2017) normalized to median positive (BzCl) and median negative (DMSO) controls using formula: (drug-BzCl)/(DMSO–BzCl), with total viability calculated as the area under the curve over all five drug concentrations, adjusted using qualitatively constrained quantile smoothing splines, R package ‘cobs’ version 1.3–3 [22]. […] For two cases where the z’-factor was below 0.5, strictly standardized mean difference (SSMD) was additionally calculated, giving the population value (β) of SSMD -4 and -5, respectively, indicating good quality. […]

SMILES strings stand for the structures. pIC50: −log10 of the molar value.

Take `O=C(/C=C/c1cccnc1)NCCCCC1CCN(C(=O)c2ccccc2)CC1` [APO866]: the pIC50 in series [1] is 9.00; in series [2] it was 8.30; in [3], 8.00; in [4], 9.00; in series [5] it was 8.22; in series [6], 8.10. Moreover, the pIC50 was 9.00 in [7]; 8.22 in [8]; 8.40 in series [9]; 8.10 in [10]; 9.00 in series [11]; 8.52 in series [12]. Further, the pIC50 in series [13] was 8.52.

Consider `Cn1cc(CNCC2CCN(c3ncc(C(=O)NO)cn3)CC2)c2ccccc21` [JNJ-26481585], for which the “patients with partial response or stable disease” value in [14] (heavily pretreated patients with solid tumors) is listed as 10%. The pIC50 in series [1] is 7.92; in series [2] it was 7.66; in series [3], 7.36; in [4], 7.60; in [5], 6.99; in [6], 7.68. Also, the pIC50 is 7.74 in series [7]; 8.00 in series [8]; 7.15 in series [9]; 7.03 in series [10]; 6.99 in series [11]; 7.60 in series [12]. Also, in [13], the pIC50 is 7.48. In addition, the “toxicity towards normal cells compared with liposarcoma cell lines” value in series [15] is recorded as “more toxic to bone marrow cells in vitro than to liposarcoma cell lines”.

Regarding `CC(C)[C@]12O[C@H]1[C@@H]1O[C@]13[C@]1(O[C@H]1C[C@H]1C4=C(CC[C@@]13C)C(=O)OC4)[C@@H]2O` [Triptolide], the pIC50 is 8.10 in series [1]; 8.15 in series [2]; 7.89 in [3]; 8.10 in series [4]; 7.92 in series [5]; 8.05 in series [6]. In addition, the pIC50 in series [7] is 8.30; in series [8] it was 8.10; in series [9], 8.70; in [10] it was 8.22; in series [11], 8.15; in series [12], 8.10. Further, the pIC50 in series [13] was 8.30. For the same compound, the “toxicity towards normal cells compared with liposarcoma cell lines” value in series [15] is listed as “more toxic to bone marrow cells in vitro than to liposarcoma cell lines”.

As to `COCCn1c2c([n+](Cc3cnccn3)c1C)C(=O)c1ccccc1C2=O` [YM155], the “patients with complete or partial responses” value in [14] (phase I, advanced solid malignancies or lymphoma) is listed as 14%. Moreover, the pIC50 is 7.31 in series [1]; 6.73 in series [2]; 7.52 in series [3]; 6.15 in [4]; 7.96 in [5]; 6.63 in series [6]. Besides, the pIC50 in series [7] was 8.40; in [8], 7.77; in series [9], 8.70; in [10], 6.45; in series [11], 7.16; in [12] it was 7.02. The pIC50 in series [13] was 7.03.
